Counter-ions that a name gives are not always drawn. Like-named read-outs stand apart in the source and are kept apart here.
Experiments:
[1] = tested on: IL-17 production by CD4 T cells; experiment: Human Th17 assay (IL-17 production by CD4 T cells under Th17 differentiation); format: cell-based; conditions: read-out: Human Th17 Assay, IC50 μM
Description: The human Th17 assay tests the effect of RORγt modulatory compounds on IL-17 production by CD4 T cells under conditions which favor Th17 differentiation.
Total CD4^+ T cells were isolated from the peripheral blood mononuclear cells (PBMC) of healthy donors using a CD4^+ T cell isolation kit II, following the manufacturer's instructions (Miltenyi Biotec). Cells were resuspended in a medium of RPMI-1640 supplemented with 10% fetal bovine serum, penicillin, streptomycin, glutamate, and β-mercaptoethanol and were added to 96-well plates at 1.5×10^5 per 100 μL per well. 50 μL of compound at titrated concentrations in DMSO were added into each well at final DMSO concentration at 0.2%. Cells were incubated for 1 hour, then 50 μL of Th17 cell differentiation medium was added to each well. The final concentrations of antibodies and cytokines (R&D Systems) in differentiation medium were: 3×10^6/mL anti-CD3/CD28 beads (prepared using human T cell activation/expansion kit, Miltenyi Biotec), 10 μg/mL anti-IL4, 10 μg/mL anti-IFNγ, 10 ng/mL IL1β, 10 ng/mL IL23, 50 ng/mL IL6, 3 ng/mL TGFβ and 20 U/mL IL2. Cells were cultured at 37° C. and 5% CO2 for 3 days. Supernatants were collected and the accumulated IL-17 in culture was measured by using MULTI-SPOT® Cytokine Plate following manufacture's instruction (Meso Scale Discovery). The plate was read using Sector Imager 6000, and IL-17 concentration was extrapolated from the standard curve. The IC50s were determined by GraphPad.

human RORγt LBD = human RORγt LBD (Homo sapiens (Human), UniProt P51449); experiment: RORγt reporter assay (GAL4-RORγt LBD luciferase in HEK293T cells); format: cell-based; conditions: for RORγt reporter Assay, % inhibition @ 6 μM / IC50: HEK293T cells; for IC50: 24 hours compound treatment; for inhibition at 6 µM: HEK-293T, read-out: RORγt reporter Assay, % inhibition @ 6 μM, HEK293T cells, 6 μM
How it was run: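 HEK293T cells transiently co-transfected with GAL4-DBD–wild-type human RORγt LBD (pBIND) and GAL4-responsive firefly luciferase reporter (pGL4.31); renilla luciferase from pBIND normalises transfection/viability. Cells in phenol-red-free DMEM, 5% lipid-reduced FCS, treated with compound 24 h. Firefly/renilla ratio plotted against compound concentration.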

[2] = target: human RORγt ligand binding domain (RORγt LBD) (Homo sapiens (Human), UniProt P51449); experiment: RORγt ThermoFluor assay (thermal shift binding affinity); conditions: estimated from thermal shift
How it was run: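 Thermal shift used 0.065 mg/mL RORγt LBD with 60 μM 1,8-ANS in 100 mM Hepes pH 7.0, 10 mM NaCl, 2.5 mM GSH and 0.002% Tween-20, heated at 1 °C/min. Fluorescence was excited at 380–400 nm and emission read at 500 nm.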

[3] = human CD4+ T cells, IL-17 after 3 days

Chain of human RORγt ligand binding domain (RORγt LBD) (P51449 other isoform, or with tags, fused parts or gaps): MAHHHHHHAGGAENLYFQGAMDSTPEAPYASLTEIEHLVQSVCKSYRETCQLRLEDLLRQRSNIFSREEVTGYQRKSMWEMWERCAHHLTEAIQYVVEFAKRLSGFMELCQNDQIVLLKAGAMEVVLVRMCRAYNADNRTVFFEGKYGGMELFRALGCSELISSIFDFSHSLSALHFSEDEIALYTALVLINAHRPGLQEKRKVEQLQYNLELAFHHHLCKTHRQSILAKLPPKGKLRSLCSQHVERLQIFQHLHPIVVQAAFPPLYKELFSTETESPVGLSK
Chain of human RORγt LBD (P51449 258-518): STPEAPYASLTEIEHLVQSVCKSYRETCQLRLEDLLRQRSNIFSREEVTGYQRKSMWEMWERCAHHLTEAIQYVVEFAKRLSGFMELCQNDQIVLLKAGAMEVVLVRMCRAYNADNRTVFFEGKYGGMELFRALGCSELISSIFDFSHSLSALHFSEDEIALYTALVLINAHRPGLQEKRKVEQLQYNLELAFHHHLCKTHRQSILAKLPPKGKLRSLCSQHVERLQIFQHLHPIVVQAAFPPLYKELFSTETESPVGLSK

SMILES	IC50 ([1]; Homo sapiens, CD4+ T, 72 h) [µM]	Kd [2] [µM]	IC50 (human RORγt LBD) [µM]	inhibition at 6 µM (human RORγt LBD) [%]	also measured
COc1nc2ccc(C(O)(c3ccc(C(F)(F)F)nc3)c3cncn3C)cc2c(Cl)c1Cc1ccc(C(F)(F)F)cc1 (single isomer, unassigned) [Example 62B, (4-Chloro-2-methoxy-3-(4-(trifluoromethyl)benzyl)quinolin-6-yl)(1-methyl-1H-imidazol-5-yl)(6-(trifluoromethyl)pyridin-3-yl)methanol]	0.1				
COc1nc2ccc(C(O)(c3ccc(Cl)cc3)c3cncn3C)cc2c(Cl)c1Cc1ccc(C#N)cc1 (single isomer, unassigned) [Example 63C, 4-((4-Chloro-6-((4-chlorophenyl)(hydroxy)(1-methyl-1H-imidazol-5-yl)methyl)-2-methoxyquinolin-3-yl)methyl)benzonitrile]	0.038				
COc1nc2ccc(C(O)(c3ccc(C)nc3C)c3cnnn3C)cc2c(Cl)c1Cc1ccc(C(F)(F)F)cc1 (single isomer, unassigned) [Example 77C, (4-chloro-2-methoxy-3-(4-(trifluoromethyl)benzyl)quinolin-6-yl)(2,6-dimethylpyridin-3-yl)(1-methyl-1H-1,2,3-triazol-5-yl)methanol]					IC50 [1, 3]: 0.0021 µM; RORγt reporter Assay, % inhibition @ 6 μM (human RORγt LBD): 100%
COc1nc2ccc(C(O)(c3ccc(C(F)(F)F)nc3)c3cncn3C)cc2c(Cl)c1Cc1ccc(-n2cccn2)cc1 (single isomer, unassigned) [Example 35C, (3-(4-(1H-pyrazol-1-yl)benzyl)-4-chloro-2-methoxyquinolin-6-yl)(1-methyl-1H-imidazol-5-yl)(6-(trifluoromethyl)pyridin-3-yl)methanol]					IC50 [1]: 0.051 µM
COc1nc2ccc(C(O)(c3ccc(C(F)(F)F)nc3)c3cncn3C)cc2c(Cl)c1Cc1ccc(C(F)(F)F)cc1 (single isomer, unassigned) [Example 62C, (4-Chloro-2-methoxy-3-(4-(trifluoromethyl)benzyl)quinolin-6-yl)(1-methyl-1H-imidazol-5-yl)(6-(trifluoromethyl)pyridin-3-yl)methanol]					IC50 [1]: 0.064 µM
COc1nc2ccc(C(O)(c3ccc(C(F)(F)F)nc3)c3cncn3C)cc2c(Cl)c1Cc1ccc(-n2cccn2)cc1 (single isomer, unassigned) [Example 35B, (3-(4-(1H-pyrazol-1-yl)benzyl)-4-chloro-2-methoxyquinolin-6-yl)(1-methyl-1H-imidazol-5-yl)(6-(trifluoromethyl)pyridin-3-yl)methanol]	0.074				
COc1nc2ccc(C(O)(c3ccc(Cl)cc3)c3cncn3C)cc2c(Cl)c1Cc1ccc(-n2cccn2)cc1 (stereo not shown) [Example 33A, (3-(4-(1H-Pyrazol-1-yl)benzyl)-4-chloro-2-methoxyquinolin-6-yl)(4-chlorophenyl)(1-methyl-1H-imidazol-5-yl)methanol]	0.14				
COc1nc2ccc(C(O)(c3ccc(Cl)cc3)c3cncn3C)cc2c(Cl)c1Cc1ccc(-n2cccn2)cc1 (single isomer, unassigned) [Example 33C, (3-(4-(1H-pyrazol-1-yl)benzyl)-4-chloro-2-methoxyquinolin-6-yl)(4-chlorophenyl)(1-methyl-1H-imidazol-5-yl)methanol]	0.067				
COc1nc2ccc(C(O)(c3ccc(C(F)(F)F)nc3)c3cncn3C)cc2c(Cl)c1Cc1ccc(-n2cccn2)cc1 (stereo not shown) [Example 35A, (3-(4-(1H-Pyrazol-1-yl)benzyl)-4-chloro-2-methoxyquinolin-6-yl)(1-methyl-1H-imidazol-5-yl)(6-(trifluoromethyl)pyridin-3-yl)methanol.TFA]	0.3				
COc1nc2ccc(C(O)(c3cnnn3C)c3cnnn3C)cc2c(Cl)c1Cc1ccc(-n2cccn2)cc1 [Example 61, (3-(4-(1H-Pyrazol-1-yl)benzyl)-4-chloro-2-methoxyquinolin-6-yl)bis(1-methyl-1H-1,2,3-triazol-5-yl)methanol]	0.0042				
COc1nc2ccc(C(O)(c3cncn3C)C3CCN(C(C)=O)CC3)cc2c(Cl)c1Cc1ccc(-n2cccn2)cc1 (single isomer, unassigned) [Example 60B, 1-(4-((3-(4-(1H-Pyrazol-1-yl)benzyl)-4-chloro-2-methoxyquinolin-6-yl)(hydroxy)(1-methyl-1H-imidazol-5-yl)methyl)piperidin-1-yl)ethanone]					IC50 ([1]; Homo sapiens, CD4+ T, 72 h, human CD4+ T cells, IL-17 after 3 days): 0.17 µM
COc1nc2ccc(C(O)(c3cncn3C)C3CCN(C(C)=O)CC3)cc2c(Cl)c1Cc1ccc(-n2cccn2)cc1 (single isomer, unassigned) [Example 60C, 1-(4-((3-(4-(1H-Pyrazol-1-yl)benzyl)-4-chloro-2-methoxyquinolin-6-yl)(hydroxy)(1-methyl-1H-imidazol-5-yl)methyl)piperidin-1-yl)ethanone]					IC50 [1, 3]: 0.16 µM
CCc1nc2ccc(C(O)(c3cnnn3C)C3CN(C(C)=O)C3)cc2c(Cl)c1Cc1ccc(C(F)(F)F)cc1 (stereo not shown) [Example 90A, 1-(3-((4-Chloro-2-ethyl-3-(4-(trifluoromethyl)benzyl)quinolin-6-yl)(hydroxy)(1-methyl-1H-1,2,3-triazol-5-yl)methyl)azetidin-1-yl)ethanone]		0.00044	0.011	98	
COc1nc2ccc(C(O)(c3cnnn3C)c3cnc(C)n3C)cc2c(C#N)c1Cc1ccc(C(F)(F)F)cc1 (stereo not shown) [Example 81A, 6-((1,2-Dimethyl-1H-imidazol-5-yl)(hydroxy)(1-methyl-1H-1,2,3-triazol-5-yl)methyl)-2-methoxy-3-(4-(trifluoromethyl)benzyl)quinoline-4-carbonitrile]		0.00012	0.0021	104	
COc1nc2c(C)cc(C(O)(c3ccc(Cl)cc3)c3cncn3C)cc2c(Cl)c1Cc1ccc(-n2cccn2)cc1 (single isomer, unassigned) [Example 28B, (3-(4-(1H-pyrazol-1-yl)benzyl)-4-chloro-2-methoxy-8-methylquinolin-6-yl)(4-chlorophenyl)(1-methyl-1H-imidazol-5-yl)methanol]		1.6	1.1	90	
COc1nc2ccc(C(O)(c3ccc(Cl)cc3)c3cncn3C)cc2c(Cl)c1Cc1cc2ccccc2s1 (single isomer, unassigned) [Example 36B, (3-(benzo[b]thiophen-2-ylmethyl)-4-chloro-2-methoxyquinolin-6-yl)(4-chlorophenyl)(1-methyl-1H-imidazol-5-yl)methanol]		0.4	0.74		RORγt reporter Assay, % inhibition @ 6 μM (human RORγt LBD): 62%
CCOc1nc2ccc(C(O)(c3ccc(OC)nc3)c3cncs3)cc2c(Cl)c1Cc1ccccc1 (stereo not shown) [Example 19, (3-Benzyl-4-chloro-2-ethoxyquinolin-6-yl)(6-methoxypyridin-3-yl)(thiazol-5-yl)methanol]		0.0027	6.6	57	
COc1nc2ccc(C(O)(c3ccc(C#N)cc3)c3cncn3C)cc2c(C#N)c1Cc1ccc(-n2cccn2)cc1 (single isomer, unassigned) [Example 76B, 3-(4-(1H-Pyrazol-1-yl)benzyl)-6-((4-cyanophenyl)(hydroxy)(1-methyl-1H-imidazol-5-yl)methyl)-2-methoxyquinoline-4-carbonitrile]		0.076	0.12	102	
COc1nc2ccc(C(O)(c3cccnc3)c3cccc(Cl)c3)cc2c(Cl)c1Cc1ccc(F)cc1 (stereo not shown) [Example 7, (4-Chloro-3-(4-fluorobenzyl)-2-methoxyquinolin-6-yl)(3-chlorophenyl)(pyridin-3-yl)methanol]		0.04	> 6	32	
OC(c1cccnc1)(c1ccc2nc(Cl)c(Cc3cccc(Cl)c3)cc2c1)c1cncs1 (stereo not shown) [Example 10]		0.099	2.3	77	
CNC(=O)c1nc2ccc(C(O)(c3ccc(F)cc3)c3cncn3C)cc2c(C(F)(F)F)c1Cc1ccccc1 (stereo not shown) [Example 51, 3-Benzyl-6-((4-fluorophenyl)(hydroxy)(1-methyl-1H-imidazol-5-yl)methyl)-N-methyl-4-(trifluoromethyl)quinoline-2-carboxamide]		1.1	1.9	98	

Reference: US9290476B2, “Methylene linked quinolinyl modulators of RORγt” (Janssen Pharmaceutica NV, priority 2012, dated 2016)
